This passage reports T/C results from PubChem BioAssay AID220 (DTP/NCI, 2004).

Structures are written as SMILES. Values joined by “and” are separate entries in the source; they are usually repeats but may differ in a detail not shown here. Equal entries are not always repeated. Records with an inconclusive call do not appear.

The test system of the test is CD8F1 mice, subcutaneous mammary adenocarcinoma, T/C%. Put plainly: NCI In Vivo Anticancer Drug Screen. Data for tumor model Mammary Adenocarcinoma CD8F1 (subcutaneous) in CD8F1. The settings on record: higher = larger tumour. The procedure, abridged: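 Antitumor activity is assessed in transplantable-tumor mice by comparing the treated group with a vehicle-treated control group. Survival or tumor size serves as the measure, reported as T divided by C.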

Where [1] appears, read: endpoint: median tumor weight change, dose: 125.0 mg/kg/injection, schedule: Q01DX001 (ip), vehicle: saline with Tween-80.
The mark [2] stands for this setting: endpoint: median tumor weight change, dose: 250.0 mg/kg/injection, schedule: Q01DX001 (ip), vehicle: saline with Tween-80.
Where [3] appears, read: endpoint: median tumor weight change, dose: 500.0 mg/kg/injection, schedule: Q01DX001 (ip), vehicle: saline with Tween-80.
The mark [4] stands for this setting: endpoint: median tumor weight (est.), dose: 100.0 mg/kg/injection, schedule: Q07DX005 (ip), vehicle: saline.
The mark [5] stands for this setting: endpoint: median tumor weight (est.), dose: 200.0 mg/kg/injection, schedule: Q07DX005 (ip), vehicle: saline.
Where [6] appears, read: endpoint: median tumor weight change, dose: 62.5 mg/kg/injection, schedule: Q01DX001 (ip), vehicle: saline with Tween-80.

For `Cc1c(N)nc(C(CC(N)=O)NCC(N)C(N)=O)nc1C(=O)NC(C(=O)NC(C)C(O)C(C)C(=O)NC(C(=O)NCCc1nc(-c2nc(C(=O)NCCCNC(C)c3ccccc3)cs2)cs1)C(C)O)C(OC1OC(CO)C(O)C(O)C1OC1OC(CO)C(O)C(OC(N)=O)C1O)c1cnc[nH]1` (stereo not given), the T/C by setting is: (endpoint: median tumor weight (est.), dose: 0.5 mg/kg/injection, schedule: Q07DX005 (ip), vehicle: water) 122 % of control; (endpoint: median tumor weight (est.), dose: 1.0 mg/kg/injection, schedule: Q07DX005 (ip), vehicle: water) 123 % of control; (endpoint: median tumor weight (est.), dose: 2.0 mg/kg/injection, schedule: Q07DX005 (ip), vehicle: water) 89 % of control; (endpoint: median tumor weight (est.), dose: 4.0 mg/kg/injection, schedule: Q07DX005 (ip), vehicle: water) 29 % of control; (endpoint: median tumor weight (est.), dose: 8.0 mg/kg/injection, schedule: Q07DX005 (ip), vehicle: water) 78 % of control; (endpoint: median tumor weight (est.), dose: 16.0 mg/kg/injection, schedule: Q07DX005 (ip), vehicle: water) 21 % of control.
Turning to `CC1(C)OC1CS(=O)c1ccccc1` (stereo not given), the T/C is, setting by setting: under setting [1], 160 % of control; under setting [2], 83 % of control and 92 % of control; under setting [3], 72 % of control and 94 % of control.
Consider `N[C@@H](Cc1ccc(N(CCCl)CCCl)cc1)C(=O)O`, for which the T/C reads like this: (endpoint: mean tumor weight, dose: 1.25 mg/kg/injection, schedule: Q01DX009 (ip), vehicle: saline) 10 % of control; (endpoint: mean tumor weight, dose: 2.5 mg/kg/injection, schedule: Q01DX009 (ip), vehicle: saline) 3 % of control; (endpoint: mean tumor weight, dose: 4.0 mg/kg/injection, schedule: Q07DX006 (ip), vehicle: saline) 12 % of control; (endpoint: mean tumor weight, dose: 5.0 mg/kg/injection, schedule: Q07DX006 (ip), vehicle: saline) 3 % of control; (endpoint: mean tumor weight, dose: 8.0 mg/kg/injection, schedule: Q07DX006 (ip), vehicle: saline) 1 % of control; (endpoint: median tumor weight (est.), dose: 1.0 mg/kg/injection, schedule: Q07DX005 (ip), vehicle: Klucel (hydroxypropylcellulose) (HPC)) 91 % of control. Also, the T/C by setting is: (endpoint: median tumor weight (est.), dose: 1.0 mg/kg/injection, schedule: Q07DX005 (ip), vehicle: suspension in saline) 60 % of control; (endpoint: median tumor weight (est.), dose: 2.0 mg/kg/injection, schedule: Q01DX001 (ip), vehicle: suspension in saline) 93 % of control and 114 % of control; (endpoint: median tumor weight (est.), dose: 2.0 mg/kg/injection, schedule: Q07DX005 (ip), vehicle: Klucel (hydroxypropylcellulose) (HPC)) 42 % of control; (endpoint: median tumor weight (est.), dose: 3.0 mg/kg/injection, schedule: Q07DX005 (ip), vehicle: suspension in saline) 6 % of control; (endpoint: median tumor weight (est.), dose: 4.0 mg/kg/injection, schedule: Q01DX001 (ip), vehicle: suspension in saline) 62 % of control and 70 % of control; (endpoint: median tumor weight (est.), dose: 4.0 mg/kg/injection, schedule: Q07DX005 (ip), vehicle: Klucel (hydroxypropylcellulose) (HPC)) 16 % of control. Moreover, the T/C was 12 % of control (endpoint: median tumor weight (est.), dose: 4.0 mg/kg/injection, schedule: Q07DX005 (ip), vehicle: suspension in saline); 1 % of control (endpoint: median tumor weight (est.), dose: 5.0 mg/kg/injection, schedule: Q07DX005 (ip), vehicle: suspension in saline); 15 % of control (endpoint: median tumor weight (est.), dose: 5.3 mg/kg/injection, schedule: Q01DX001 (ip), vehicle: suspension in saline); 9 % of control (endpoint: median tumor weight (est.), dose: 8.0 mg/kg/injection, schedule: Q07DX005 (ip), vehicle: Klucel (hydroxypropylcellulose) (HPC)); 1 % of control (endpoint: median tumor weight (est.), dose: 8.0 mg/kg/injection, schedule: Q07DX005 (ip), vehicle: suspension in saline); 7 % of control (endpoint: median tumor weight (est.), dose: 12.0 mg/kg/injection, schedule: Q01DX001 (ip), vehicle: suspension in saline). Also, the T/C (endpoint: median tumor weight (est.), dose: 16.0 mg/kg/injection, schedule: Q01DX001 (ip), vehicle: suspension in saline) is 8 % of control and 18 % of control; the T/C (endpoint: median tumor weight (est.), dose: 18.0 mg/kg/injection, schedule: Q01DX001 (ip), vehicle: suspension in saline) is 7 % of control; the T/C (endpoint: median tumor weight change, dose: 3.0 mg/kg/injection, schedule: Q01DX001 (ip), vehicle: saline) is 72 % of control; the T/C (endpoint: median tumor weight change, dose: 5.0 mg/kg/injection, schedule: Q01DX001 (ip), vehicle: saline) is 4 % of control; the T/C (endpoint: median tumor weight change, dose: 10.0 mg/kg/injection, schedule: Q01DX001 (ip), vehicle: saline) is -6 % of control; the T/C (endpoint: median tumor weight change, dose: 20.0 mg/kg/injection, schedule: Q01DX001 (ip), vehicle: saline) is -82 % of control.
For the molecule `O=C1C(NCC(O)CO)=C(N2CC2)C(=O)C(NCC(O)CO)=C1N1CC1` (stereo not given), the T/C runs as follows: (endpoint: median tumor weight change, dose: 4.0 mg/kg/injection, schedule: Q01DX001 (ip), vehicle: saline) 123 % of control; (endpoint: median tumor weight change, dose: 4.0 mg/kg/injection, schedule: Q01DX001 (ip), vehicle: suspension in saline) 55 % of control; (endpoint: median tumor weight change, dose: 8.0 mg/kg/injection, schedule: Q01DX001 (ip), vehicle: saline) 19 % of control; (endpoint: median tumor weight change, dose: 8.0 mg/kg/injection, schedule: Q01DX001 (ip), vehicle: suspension in saline) 35 % of control (2×) and 55 % of control; (endpoint: median tumor weight change, dose: 16.0 mg/kg/injection, schedule: Q01DX001 (ip), vehicle: saline) 3 % of control.
Turning to `OCC1(CO)COC2(CCCCC2)N1`, the T/C runs as follows: (endpoint: median tumor weight (est.), dose: 12.5 mg/kg/injection, schedule: Q07DX005 (ip), vehicle: saline) 78 % of control; (endpoint: median tumor weight (est.), dose: 25.0 mg/kg/injection, schedule: Q07DX005 (ip), vehicle: saline) 64 % of control; (endpoint: median tumor weight (est.), dose: 50.0 mg/kg/injection, schedule: Q07DX005 (ip), vehicle: saline) 112 % of control; under setting [4], 105 % of control; under setting [5], 81 % of control; (endpoint: median tumor weight (est.), dose: 400.0 mg/kg/injection, schedule: Q07DX005 (ip), vehicle: saline) 93 % of control.
For `CC(C)[C@](O)(C(=O)OCC1=CCN2CC[C@@H](O)[C@@H]12)[C@H](C)O`, the T/C by setting is: (endpoint: median tumor weight change, dose: 125.0 mg/kg/injection, schedule: Q01DX001 (ip), vehicle: water) 78 % of control; (endpoint: median tumor weight change, dose: 250.0 mg/kg/injection, schedule: Q01DX001 (ip), vehicle: water) 179 % of control.
As to `Cn1cnc([N+](=O)[O-])c1S(=O)(=O)NCN1CCOCC1`, the T/C reads like this: (endpoint: median tumor weight (est.), dose: 12.5 mg/kg/injection, schedule: Q07DX005 (ip), vehicle: Klucel (hydroxypropylcellulose) (HPC)) 103 % of control; (endpoint: median tumor weight (est.), dose: 25.0 mg/kg/injection, schedule: Q07DX005 (ip), vehicle: Klucel (hydroxypropylcellulose) (HPC)) 164 % of control and 185 % of control; (endpoint: median tumor weight (est.), dose: 50.0 mg/kg/injection, schedule: Q07DX005 (ip), vehicle: Klucel (hydroxypropylcellulose) (HPC)) 71 % of control; (endpoint: median tumor weight (est.), dose: 100.0 mg/kg/injection, schedule: Q07DX005 (ip), vehicle: Klucel (hydroxypropylcellulose) (HPC)) 82 % of control and 95 % of control.
Turning to `Nc1n[nH]c(N)n1`, the T/C is 153 % of control (endpoint: mean tumor weight, dose: 25.0 mg/kg/injection, schedule: Q01DX009 (ip), vehicle: saline); 207 % of control (endpoint: mean tumor weight, dose: 100.0 mg/kg/injection, schedule: Q01DX009 (ip), vehicle: saline); 50 % of control and 67 % of control under setting [4]; 58 % of control and 68 % of control under setting [5]; 27 % of control and 51 % of control (endpoint: median tumor weight (est.), dose: 1600.0 mg/kg/injection, schedule: Q07DX005 (ip), vehicle: saline); 75 % of control (endpoint: median tumor weight change, dose: 250.0 mg/kg/injection, schedule: Q01DX001 (ip), vehicle: saline). Further, the T/C is, setting by setting: (endpoint: median tumor weight change, dose: 500.0 mg/kg/injection, schedule: Q01DX001 (ip), vehicle: saline) 121 % of control; (endpoint: median tumor weight change, dose: 1000.0 mg/kg/injection, schedule: Q01DX001 (ip), vehicle: saline) 120 % of control; (endpoint: median tumor weight change, dose: 2000.0 mg/kg/injection, schedule: Q01DX001 (ip), vehicle: saline) 174 % of control.
For the molecule `Nc1ccc(C(OC(=O)c2cc3ccccc3c(Cc3c(O)c(C(=O)OC(c4ccc(N)cc4)(c4ccc(N)cc4)c4ccc(N)cc4)cc4ccccc34)c2O)(c2ccc(N)cc2)c2ccc(N)cc2)cc1`, the T/C is 73 % of control (endpoint: median tumor weight change, dose: 6.25 mg/kg/injection, schedule: Q01DX001 (ip), vehicle: saline with Tween-80); 97 % of control (endpoint: median tumor weight change, dose: 50.0 mg/kg/injection, schedule: Q01DX001 (ip), vehicle: saline with Tween-80); 61 % of control under setting [6].
Regarding `O=C1[C@H]2CCC[C@H]2[C@H]2CCC[C@@H]12`, the T/C is 51 % of control under setting [6], 44 % of control under setting [1], 60 % of control under setting [2] and 35 % of control under setting [3].
Consider `O=NN(CCCl)C(=O)NC1OC(CO)C(O)C(O)C1O` (stereo not given), for which the T/C reads like this: (endpoint: median tumor weight (est.), dose: 1.25 mg/kg/injection, schedule: Q07DX005 (ip), vehicle: saline) 113 % of control; (endpoint: median tumor weight (est.), dose: 2.5 mg/kg/injection, schedule: Q07DX005 (ip), vehicle: saline) 91 % of control; (endpoint: median tumor weight (est.), dose: 5.0 mg/kg/injection, schedule: Q07DX005 (ip), vehicle: saline) 106 % of control; (endpoint: median tumor weight (est.), dose: 10.0 mg/kg/injection, schedule: Q07DX005 (ip), vehicle: saline) 29 % of control.
